± gives the expanded uncertainty stated by the source.
Assay: mn = molality of the nth substance listed, in mol/kg
Settings: 100 kPa, Liquid; for electrical conductivity: Alternating current cell with electrodes; for viscosity: Falling or rolling sphere viscometry; for mass density: Vibrating tube method

What does the source list for `CCC(=O)OCCN1CCNCC1` [2-(piperazin-1-yl)ethyl propionate] + CCO?
electrical conductivity (318.15 K, m1 = 2.001): 0.211 ± 0.002 S/m; electrical conductivity (318.15 K, m1 = 2.198): 0.214 ± 0.002 S/m; electrical conductivity (318.15 K, m1 = 2.397): 0.212 ± 0.002 S/m; electrical conductivity (318.15 K, m1 = 2.597): 0.207 ± 0.002 S/m; electrical conductivity (318.15 K, m1 = 2.796): 0.199 ± 0.002 S/m; electrical conductivity (318.15 K, m1 = 3.006): 0.188 ± 0.0019 S/m; viscosity (318.15 K, m1 = 0.05): 0.787 ± 0.01 mPa·s; viscosity (318.15 K, m1 = 0.1): 0.82 ± 0.01 mPa·s; viscosity (318.15 K, m1 = 0.1985): 0.86 ± 0.011 mPa·s; viscosity (318.15 K, m1 = 0.3005): 0.916 ± 0.011 mPa·s; viscosity (318.15 K, m1 = 0.4001): 0.972 ± 0.012 mPa·s; viscosity (318.15 K, m1 = 0.5007): 1.043 ± 0.013 mPa·s; viscosity (318.15 K, m1 = 0.5998): 1.113 ± 0.014 mPa·s; viscosity (318.15 K, m1 = 0.7002): 1.194 ± 0.015 mPa·s; viscosity (318.15 K, m1 = 0.8): 1.299 ± 0.016 mPa·s; viscosity (318.15 K, m1 = 0.8957): 1.381 ± 0.017 mPa·s; viscosity (318.15 K, m1 = 1): 1.492 ± 0.018 mPa·s; viscosity (318.15 K, m1 = 1.198): 1.741 ± 0.022 mPa·s; viscosity (318.15 K, m1 = 1.401): 2.071 ± 0.026 mPa·s; viscosity (318.15 K, m1 = 1.602): 2.503 ± 0.031 mPa·s; viscosity (318.15 K, m1 = 1.8): 3.057 ± 0.038 mPa·s; viscosity (318.15 K, m1 = 2.001): 3.912 ± 0.048 mPa·s; viscosity (318.15 K, m1 = 2.198): 4.647 ± 0.057 mPa·s; viscosity (318.15 K, m1 = 2.397): 5.859 ± 0.072 mPa·s; viscosity (318.15 K, m1 = 2.597): 8.129 ± 0.1 mPa·s; viscosity (318.15 K, m1 = 2.796): 10.27 ± 0.13 mPa·s; viscosity (318.15 K, m1 = 3.006): 14.2 ± 0.18 mPa·s; mass density (318.15 K, m1 = 0.05): 770.48 ± 0.16 kg/m3; mass density (318.15 K, m1 = 0.1): 773.2 ± 0.16 kg/m3; mass density (318.15 K, m1 = 0.1985): 778.55 ± 0.16 kg/m3; mass density (318.15 K, m1 = 0.3005): 784.23 ± 0.15 kg/m3; mass density (318.15 K, m1 = 0.4001): 789.7 ± 0.15 kg/m3; mass density (318.15 K, m1 = 0.5007): 795.39 ± 0.15 kg/m3; mass density (318.15 K, m1 = 0.5998): 800.91 ± 0.15 kg/m3; mass density (318.15 K, m1 = 0.7002): 806.67 ± 0.15 kg/m3; mass density (318.15 K, m1 = 0.8): 812.45 ± 0.15 kg/m3; mass density (318.15 K, m1 = 0.8957): 818.24 ± 0.15 kg/m3; mass density (318.15 K, m1 = 1): 824.21 ± 0.14 kg/m3; mass density (318.15 K, m1 = 1.198): 835.97 ± 0.14 kg/m3; mass density (318.15 K, m1 = 1.401): 848.63 ± 0.14 kg/m3; mass density (318.15 K, m1 = 1.602): 860.7 ± 0.14 kg/m3; mass density (318.15 K, m1 = 1.8): 873.18 ± 0.13 kg/m3; mass density (318.15 K, m1 = 2.001): 886.65 ± 0.13 kg/m3; mass density (318.15 K, m1 = 2.198): 898.68 ± 0.13 kg/m3; mass density (318.15 K, m1 = 2.397): 912.04 ± 0.13 kg/m3; mass density (318.15 K, m1 = 2.597): 925.4 ± 0.12 kg/m3; mass density (318.15 K, m1 = 2.796): 938.75 ± 0.12 kg/m3; mass density (318.15 K, m1 = 3.006): 953.35 ± 0.12 kg/m3; electrical conductivity (323.15 K, m1 = 0.05): 0.0198 ± 0.00021 S/m; electrical conductivity (323.15 K, m1 = 0.1): 0.0331 ± 0.0003 S/m; electrical conductivity (323.15 K, m1 = 0.1985): 0.0536 ± 0.0005 S/m; electrical conductivity (323.15 K, m1 = 0.3005): 0.0711 ± 0.0007 S/m; electrical conductivity (323.15 K, m1 = 0.4001): 0.0856 ± 0.0009 S/m; electrical conductivity (323.15 K, m1 = 0.5007): 0.1004 ± 0.001 S/m; electrical conductivity (323.15 K, m1 = 0.5998): 0.1131 ± 0.0011 S/m; electrical conductivity (323.15 K, m1 = 0.7002): 0.1239 ± 0.0012 S/m; electrical conductivity (323.15 K, m1 = 0.8): 0.137 ± 0.0014 S/m; electrical conductivity (323.15 K, m1 = 0.8957): 0.146 ± 0.0015 S/m; electrical conductivity (323.15 K, m1 = 1): 0.159 ± 0.0016 S/m; electrical conductivity (323.15 K, m1 = 1.198): 0.178 ± 0.0018 S/m; electrical conductivity (323.15 K, m1 = 1.401): 0.196 ± 0.002 S/m; electrical conductivity (323.15 K, m1 = 1.602): 0.209 ± 0.002 S/m; electrical conductivity (323.15 K, m1 = 1.8): 0.222 ± 0.002 S/m; electrical conductivity (323.15 K, m1 = 2.001): 0.231 ± 0.002 S/m; electrical conductivity (323.15 K, m1 = 2.198): 0.237 ± 0.002 S/m; electrical conductivity (323.15 K, m1 = 2.397): 0.236 ± 0.002 S/m; electrical conductivity (323.15 K, m1 = 2.597): 0.232 ± 0.002 S/m; electrical conductivity (323.15 K, m1 = 2.796): 0.224 ± 0.002 S/m; electrical conductivity (323.15 K, m1 = 3.006): 0.213 ± 0.002 S/m; viscosity (323.15 K, m1 = 0.05): 0.725 ± 0.009 mPa·s; viscosity (323.15 K, m1 = 0.1): 0.755 ± 0.009 mPa·s; viscosity (323.15 K, m1 = 0.1985): 0.79 ± 0.01 mPa·s; viscosity (323.15 K, m1 = 0.3005): 0.84 ± 0.01 mPa·s; viscosity (323.15 K, m1 = 0.4001): 0.889 ± 0.011 mPa·s; viscosity (323.15 K, m1 = 0.5007): 0.951 ± 0.012 mPa·s; viscosity (323.15 K, m1 = 0.5998): 1.014 ± 0.013 mPa·s; viscosity (323.15 K, m1 = 0.7002): 1.086 ± 0.013 mPa·s; viscosity (323.15 K, m1 = 0.8): 1.178 ± 0.015 mPa·s; viscosity (323.15 K, m1 = 0.8957): 1.251 ± 0.015 mPa·s; viscosity (323.15 K, m1 = 1): 1.348 ± 0.017 mPa·s; viscosity (323.15 K, m1 = 1.198): 1.567 ± 0.019 mPa·s; viscosity (323.15 K, m1 = 1.401): 1.855 ± 0.023 mPa·s; viscosity (323.15 K, m1 = 1.602): 2.446 ± 0.03 mPa·s; viscosity (323.15 K, m1 = 1.8): 2.713 ± 0.034 mPa·s; viscosity (323.15 K, m1 = 2.001): 3.443 ± 0.043 mPa·s; viscosity (323.15 K, m1 = 2.198): 4.068 ± 0.05 mPa·s; viscosity (323.15 K, m1 = 2.397): 5.091 ± 0.063 mPa·s; viscosity (323.15 K, m1 = 2.597): 6.903 ± 0.085 mPa·s; viscosity (323.15 K, m1 = 2.796): 8.728 ± 0.11 mPa·s; viscosity (323.15 K, m1 = 3.006): 12.02 ± 0.15 mPa·s; mass density (323.15 K, m1 = 0.05): 765.98 ± 0.16 kg/m3; mass density (323.15 K, m1 = 0.1): 768.7 ± 0.16 kg/m3; mass density (323.15 K, m1 = 0.1985): 774.05 ± 0.16 kg/m3; mass density (323.15 K, m1 = 0.3005): 779.73 ± 0.16 kg/m3; mass density (323.15 K, m1 = 0.4001): 785.21 ± 0.15 kg/m3; mass density (323.15 K, m1 = 0.5007): 790.92 ± 0.15 kg/m3; mass density (323.15 K, m1 = 0.5998): 796.46 ± 0.15 kg/m3; mass density (323.15 K, m1 = 0.7002): 802.23 ± 0.15 kg/m3; mass density (323.15 K, m1 = 0.8): 808.02 ± 0.15 kg/m3; mass density (323.15 K, m1 = 0.8957): 813.82 ± 0.15 kg/m3; mass density (323.15 K, m1 = 1): 819.82 ± 0.15 kg/m3; mass density (323.15 K, m1 = 1.198): 831.61 ± 0.14 kg/m3; mass density (323.15 K, m1 = 1.401): 844.32 ± 0.14 kg/m3; mass density (323.15 K, m1 = 1.602): 856.43 ± 0.14 kg/m3; mass density (323.15 K, m1 = 1.8): 868.95 ± 0.13 kg/m3; mass density (323.15 K, m1 = 2.001): 882.65 ± 0.13 kg/m3; mass density (323.15 K, m1 = 2.198): 894.55 ± 0.13 kg/m3; mass density (323.15 K, m1 = 2.397): 907.95 ± 0.13 kg/m3; mass density (323.15 K, m1 = 2.597): 921.36 ± 0.12 kg/m3; mass density (323.15 K, m1 = 2.796): 934.75 ± 0.12 kg/m3; mass density (323.15 K, m1 = 3.006): 949.41 ± 0.12 kg/m3

From the NIST ThermoML archive (doi:10.1021/je500380x)
